Results from the NIST ThermoML archive (doi:10.1021/je500448j).
± gives the expanded uncertainty stated by the source.

Details: 298.15 K; 101.33 kPa; Liquid; Vibrating tube method

Structure (SMILES) | mass density [kg/m3]
CN(C)c1ccccc1 [N,N-dimethylaniline] | 952.05 ± 0.23
Nc1ccccc1 [aniline] | 1017.39 ± 0.09
